ChEMBL document CHEMBL1132777, “Novel, potent and selective chimeric FXa inhibitors featuring hydrophobic P1-ketoamide moieties” (Bioorg Med Chem Lett, 2000)

Tests used:
Coagulation factor X [1] = target: T1, Coagulation factor X (Homo sapiens, UniProt P00742); test: Inhibitory activity against Coagulation factor X
Target sequence in this assay (P00742 41-179 limits assumed): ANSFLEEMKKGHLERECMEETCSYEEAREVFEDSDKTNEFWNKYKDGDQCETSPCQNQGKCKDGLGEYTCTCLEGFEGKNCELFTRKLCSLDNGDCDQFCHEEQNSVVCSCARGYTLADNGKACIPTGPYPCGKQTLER
Target sequence in this assay (P00742 235-488 limits assumed): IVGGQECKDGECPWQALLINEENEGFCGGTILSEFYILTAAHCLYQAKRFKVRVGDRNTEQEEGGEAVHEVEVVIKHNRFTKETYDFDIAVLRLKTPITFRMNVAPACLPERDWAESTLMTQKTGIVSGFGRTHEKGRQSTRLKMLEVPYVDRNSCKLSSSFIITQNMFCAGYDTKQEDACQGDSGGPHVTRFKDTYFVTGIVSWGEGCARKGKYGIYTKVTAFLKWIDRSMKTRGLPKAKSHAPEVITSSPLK

Prothrombin [2] = target: T2, Prothrombin (Homo sapiens, UniProt P00734); test: In vitro inhibitory activity against Thrombin (FIIa)
Serine protease 1 [3] = target: T3, Serine protease 1 (Homo sapiens, UniProt P07477); test: In vitro inhibitory activity against Human trypsin
Plasminogen [4] = target: T4, Plasminogen (Homo sapiens, UniProt P00747); test: In vitro inhibitory activity against plasmin
Plasminogen [5] = target: T4, Plasminogen; test: In vitro inhibitory activity against plasmin; inactive
Serine protease 1 [6] = target: T3, Serine protease 1; test: In vitro inhibitory activity against Human trypsin; inactive
Coagulation factor X [7] = target: T1, Coagulation factor X; test: In vitro inhibitory activity against prothrombinase (PTase) complex
Target sequence in this assay (P00742 whole entry): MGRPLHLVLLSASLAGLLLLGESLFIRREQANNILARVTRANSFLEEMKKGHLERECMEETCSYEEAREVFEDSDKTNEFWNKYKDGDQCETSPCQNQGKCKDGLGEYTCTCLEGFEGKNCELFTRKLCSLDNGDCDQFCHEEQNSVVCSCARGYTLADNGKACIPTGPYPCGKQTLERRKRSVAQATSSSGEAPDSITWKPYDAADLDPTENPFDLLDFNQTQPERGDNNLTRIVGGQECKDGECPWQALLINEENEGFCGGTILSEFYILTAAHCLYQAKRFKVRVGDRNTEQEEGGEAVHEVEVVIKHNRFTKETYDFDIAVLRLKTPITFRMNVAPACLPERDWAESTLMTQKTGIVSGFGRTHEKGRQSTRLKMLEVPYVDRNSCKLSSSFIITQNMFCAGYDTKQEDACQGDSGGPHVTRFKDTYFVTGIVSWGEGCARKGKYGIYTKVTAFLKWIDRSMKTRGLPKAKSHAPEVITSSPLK

Prothrombin [8] = target: T2, Prothrombin; test: In vitro inhibitory activity against Thrombin (FIIa); inactive

T4 sequence (P00747 97-580 limits assumed): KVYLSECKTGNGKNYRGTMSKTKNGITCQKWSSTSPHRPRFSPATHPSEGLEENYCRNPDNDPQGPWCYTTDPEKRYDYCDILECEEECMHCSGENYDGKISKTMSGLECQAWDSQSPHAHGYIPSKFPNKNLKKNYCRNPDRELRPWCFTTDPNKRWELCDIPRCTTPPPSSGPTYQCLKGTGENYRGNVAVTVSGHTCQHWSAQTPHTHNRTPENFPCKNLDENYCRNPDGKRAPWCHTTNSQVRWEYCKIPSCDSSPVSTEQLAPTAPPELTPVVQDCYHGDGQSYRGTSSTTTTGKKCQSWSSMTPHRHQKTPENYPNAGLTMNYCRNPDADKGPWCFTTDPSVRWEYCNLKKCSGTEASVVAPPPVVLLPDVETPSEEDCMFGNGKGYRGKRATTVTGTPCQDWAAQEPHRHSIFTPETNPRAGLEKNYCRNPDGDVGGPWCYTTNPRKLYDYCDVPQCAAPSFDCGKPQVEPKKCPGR
T4 sequence (P00747 581-810 limits assumed): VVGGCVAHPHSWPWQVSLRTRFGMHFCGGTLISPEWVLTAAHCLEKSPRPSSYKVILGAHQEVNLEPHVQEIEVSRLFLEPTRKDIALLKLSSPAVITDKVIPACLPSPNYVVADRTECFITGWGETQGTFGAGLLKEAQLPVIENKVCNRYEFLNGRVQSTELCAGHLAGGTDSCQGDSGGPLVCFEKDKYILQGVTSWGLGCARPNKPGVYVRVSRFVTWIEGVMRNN
T3 sequence (P07477 whole entry): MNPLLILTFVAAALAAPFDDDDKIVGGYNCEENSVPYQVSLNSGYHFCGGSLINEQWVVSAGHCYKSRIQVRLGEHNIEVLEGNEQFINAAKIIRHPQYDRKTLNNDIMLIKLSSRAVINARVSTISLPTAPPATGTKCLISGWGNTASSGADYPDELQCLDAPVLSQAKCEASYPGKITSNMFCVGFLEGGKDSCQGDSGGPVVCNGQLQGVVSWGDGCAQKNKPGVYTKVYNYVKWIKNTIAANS

Compound: CCCCCNC(=O)C(=O)[C@H](CC1CCCCC1)NC(=O)CN(C)C(=O)[C@@H](CCCN=C(N)N)NS(=O)(=O)Cc1ccccc1
- IC50 (Coagulation factor X [1]): 1.87 nM
- IC50 (Prothrombin [2]): 3830 nM
- IC50 (Serine protease 1 [3]): 163 nM
- IC50 (Plasminogen [4]): > 2500 nM

Compound: CCOC(=O)CNC(=O)C(=O)[C@H](CC1CCCCC1)NC(=O)CN(C)C(=O)[C@@H](CCCN=C(N)N)NS(=O)(=O)Cc1ccccc1
- IC50 (Coagulation factor X [1]): 2.13 nM
- IC50 (Prothrombin [2]): > 2500 nM
- IC50 (Plasminogen [5]): Not Active
- IC50 (Serine protease 1 [6]): Not Active

Compound: CCOC(=O)CNC(=O)C(=O)[C@H](Cc1ccccc1)NC(=O)CN(C)C(=O)[C@@H](CCCN=C(N)N)NS(=O)(=O)Cc1ccccc1
- IC50 (Coagulation factor X [1]): 6.6 nM
- IC50 (Prothrombin [2]): > 2500 nM
- IC50 (Coagulation factor X [7]): 25.1 nM
- IC50 (Serine protease 1 [3]): > 2500 nM
- IC50 (Plasminogen [5]): Not Active

Compound: CCOC(=O)CNC(=O)C(=O)[C@H](Cc1ccc(OC(C)(C)C)cc1)NC(=O)CN(C)C(=O)[C@@H](CCCN=C(N)N)NS(=O)(=O)Cc1ccccc1.O=C(O)C(F)(F)F
- IC50 (Coagulation factor X [1]): 246 nM
- IC50 (Prothrombin [8]): Not Active
- IC50 (Plasminogen [4]): > 2500 nM
- IC50 (Serine protease 1 [6]): Not Active

Compound: CN(CC(=O)N[C@H]1CCCC(C(=N)N)C1O)C(=O)[C@@H](CCCN=C(N)N)NS(=O)(=O)Cc1ccccc1 (some centres undefined)
- IC50 (Coagulation factor X [1]): 0.86 nM
- IC50 (Prothrombin [2]): > 2500 nM
- IC50 (Coagulation factor X [7]): 3.4 nM
- IC50 (Serine protease 1 [3]): 74.7 nM
- IC50 (Plasminogen [4]): 1200 nM

Compound: CCOC(=O)CNC(=O)C(=O)[C@H](Cc1ccc(O)cc1)NC(=O)CN(C)C(=O)[C@@H](CCCN=C(N)N)NS(=O)(=O)Cc1ccccc1.O=C(O)C(F)(F)F
- IC50 (Coagulation factor X [1]): 7.63 nM
- IC50 (Prothrombin [2]): > 2500 nM
- IC50 (Coagulation factor X [7]): 29.2 nM
- IC50 (Plasminogen [5]): Not Active
- IC50 (Serine protease 1 [6]): Not Active

Compound: CN(CC(=O)N[C@@H](Cc1ccccc1)C(=O)C(=O)NCC(=O)NCCc1ccccc1)C(=O)[C@@H](CCCN=C(N)N)NS(=O)(=O)Cc1ccccc1.O=C(O)C(F)(F)F
- IC50 (Coagulation factor X [1]): 7.89 nM
- IC50 (Prothrombin [2]): > 2500 nM
- IC50 (Coagulation factor X [7]): 25.9 nM
- IC50 (Plasminogen [5]): Not Active
- IC50 (Serine protease 1 [6]): Not Active

Compound: CN(CC(=O)N[C@@H](CC1CCCCC1)C(=O)C(=O)NCCc1ccccc1)C(=O)[C@@H](CCCN=C(N)N)NS(=O)(=O)Cc1ccccc1
- IC50 (Coagulation factor X [1]): 13.2 nM
- IC50 (Prothrombin [2]): 2210 nM
- IC50 (Serine protease 1 [3]): > 2500 nM
- IC50 (Plasminogen [5]): Not Active

Compound: CN(CC(=O)N[C@@H](CC1CCCCC1)C(=O)C(=O)NCc1ccc2c(c1)OCO2)C(=O)[C@@H](CC/N=C(\N)N[N+](=O)[O-])NS(=O)(=O)Cc1ccccc1
- IC50 (Coagulation factor X [1]): 46.4 nM
- IC50 (Prothrombin [2]): > 2500 nM
- IC50 (Plasminogen [5]): Not Active
- IC50 (Serine protease 1 [6]): Not Active

Compound: CN(CC(=O)N[C@@H](CC1CCCCC1)C(=O)C(=O)NCc1ccccc1)C(=O)[C@@H](CCCN=C(N)N)NS(=O)(=O)Cc1ccccc1
- IC50 (Coagulation factor X [1]): 3.26 nM
- IC50 (Prothrombin [2]): 1960 nM
- IC50 (Serine protease 1 [3]): 2500 nM
- IC50 (Plasminogen [4]): > 2500 nM
